Data from US11179415B1 (priority 2020, dated 2021).
Read-outs that look alike come from different tables or passages of the source.

Tests used:
common cold = assay: inventor's self-use of CLO2 to prevent the common cold; assay type: in vivo, human; conditions: 5 ppm CLO2 nasal drops only, several drops per nostril 2 times per day, 3 days from prodromal period; one person
SARS CoV-2 = conditions: in vivo
Coronavirus SARS CoV-2 = conditions: Fact Sheet, National Agricultural Biosecurity Center, Kansas State University; cited from earlier work
human Coronavirus = conditions: BASF Aseptrol Label, EPA Registration Number 70060-19; cited from earlier work
[1] = man; daily ingestion of 500 ml CLO2 at 5 ppm; cited from earlier work
[2] = rat; in drinking water up to several months; doses as high as 1000 mg/liter (1000 ppm or 0.1%); cited from earlier work
[3] = mouse; in drinking water up to several months; doses as high as 1000 mg/liter (1000 ppm or 0.1%); cited from earlier work
[4] = chicken; in drinking water up to several months; doses as high as 1000 mg/liter (1000 ppm or 0.1%); cited from earlier work
[5] = OSHA, cited from earlier work

| Compound | development of a common cold (common cold) | lung irritation after inhalation of aerosol fog (SARS CoV-2) | symptoms after contracting SARS CoV-2 (SARS CoV-2) | virucidal activity against SARS CoV-2 (Coronavirus SARS CoV-2) | efficacy against human Coronavirus (human Coronavirus) | tolerability of daily ingestion [1] | methemoglobin concentrations [2] | methemoglobin concentrations [3] | methemoglobin concentrations [4] | concentration safe for an 8-hour exposure ([5]; 8-hour exposure) [ppm] | concentration safe for short-time exposure limit (STEL) ([5]; STEL of 15 minutes) [ppm] |
| --- | --- | --- | --- | --- | --- | --- | --- | --- | --- | --- | --- |
| [O][Cl+][O-] [CLO2, chlorine dioxide] | a cold never developed | no resulting lung irritation | only little to slight symptoms | kills the Coronavirus SARS CoV-2 | effective against human Coronavirus | safely tolerated | no significant increases | no significant increases | no significant increases | 0.1 | 0.3 |
| [O-][Cl+2]([O-])O [CLO3] |  |  |  |  |  |  | no significant increases | no significant increases | no significant increases |  |  |
